From ChEMBL document CHEMBL3880422, “C-terminal modified oxamyl dipeptides as inhibitors of the ICE/ced-3 family of cysteine proteases” (2007)

Tests used:
Caspase-1 (Mus musculus) = target: T1, Caspase-1 (Mus musculus) (UniProt P29452); experiment: Inhibition of mouse recombinant ICE assessed as ratio of irreversible rate constant K3 to dissociation constant of the reversible binding step Ki pre-incubated for 60 mins with Acetyl-Tyr-Val-Ala-Asp-amino-4-methylcoumarin substrate followed by enzyme addition by fluorescence based assay
T1 sequence (whole entry): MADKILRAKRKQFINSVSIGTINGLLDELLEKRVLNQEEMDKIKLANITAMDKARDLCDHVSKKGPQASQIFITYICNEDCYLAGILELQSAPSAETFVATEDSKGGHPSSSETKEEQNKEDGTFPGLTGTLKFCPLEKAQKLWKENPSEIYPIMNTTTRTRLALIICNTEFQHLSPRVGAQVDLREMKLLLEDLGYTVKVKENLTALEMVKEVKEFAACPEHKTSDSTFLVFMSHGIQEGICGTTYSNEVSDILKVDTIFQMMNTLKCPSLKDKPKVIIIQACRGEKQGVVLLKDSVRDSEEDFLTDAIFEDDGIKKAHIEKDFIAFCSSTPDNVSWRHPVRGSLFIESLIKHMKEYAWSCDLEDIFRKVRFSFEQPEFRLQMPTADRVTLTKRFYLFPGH

Caspase-6 (Homo sapiens) = target: T2, Caspase-6 (Homo sapiens) (UniProt P55212); experiment: (§1) Inhibition of recombinant MCH2 (unknown origin) assessed as ratio of irreversible rate constant K3 to dissociation constant of the reversible binding step Ki pre-incubated for 60 mins with Acetyl-Tyr-Val-Ala-Asp-amino-4-methylcoumarin substrate followed by enzyme addition by fluorescence based assay
T2 sequence (whole entry): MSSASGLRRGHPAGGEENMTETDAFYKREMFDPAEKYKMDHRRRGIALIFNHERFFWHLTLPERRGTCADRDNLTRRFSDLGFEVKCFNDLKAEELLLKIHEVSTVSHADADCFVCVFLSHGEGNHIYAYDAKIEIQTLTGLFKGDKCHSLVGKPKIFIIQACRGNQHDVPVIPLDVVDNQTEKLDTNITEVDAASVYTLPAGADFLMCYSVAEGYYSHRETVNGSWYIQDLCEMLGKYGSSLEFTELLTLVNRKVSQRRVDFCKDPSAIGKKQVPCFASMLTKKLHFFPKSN

Caspase-3 (Homo sapiens) = target: T3, Caspase-3 (Homo sapiens) (UniProt P42574); experiment: as §1, with “CPP32” for “MCH2”
T3 sequence (whole entry): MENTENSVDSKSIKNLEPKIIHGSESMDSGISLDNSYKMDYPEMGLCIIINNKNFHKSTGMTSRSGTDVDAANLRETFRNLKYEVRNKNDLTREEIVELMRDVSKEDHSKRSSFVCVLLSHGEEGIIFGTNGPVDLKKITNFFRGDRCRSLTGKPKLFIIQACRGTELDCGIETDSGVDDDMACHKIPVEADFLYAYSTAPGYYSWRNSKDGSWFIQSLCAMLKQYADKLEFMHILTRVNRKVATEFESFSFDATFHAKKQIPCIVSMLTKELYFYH

Caspase-8 (Homo sapiens) = Caspase-8 (Homo sapiens) (UniProt Q14790); experiment: Inhibition of recombinant MCH5 (unknown origin) assessed as ratio of irreversible rate constant K3 to dissociation constant of the reversible binding step Ki pre-incubated for 60 mins with Acetyl-Tyr-Val-Ala-Asp-amino-4-methylcoumarin substrate followed by enzyme addition by fluorescence based assay
Caspase-8 (Homo sapiens), sequence (Q14790 217-374 limits assumed): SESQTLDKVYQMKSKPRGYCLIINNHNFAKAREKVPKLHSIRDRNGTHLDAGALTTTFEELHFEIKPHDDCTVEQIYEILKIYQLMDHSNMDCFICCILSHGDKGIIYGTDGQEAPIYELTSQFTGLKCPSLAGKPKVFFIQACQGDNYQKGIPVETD
Caspase-8 (Homo sapiens), sequence (Q14790 385-479 limits assumed): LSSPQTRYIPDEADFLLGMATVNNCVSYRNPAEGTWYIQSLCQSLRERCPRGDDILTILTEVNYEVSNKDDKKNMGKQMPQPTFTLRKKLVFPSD

Row | Compound | Ratio (Caspase-1 (Mus musculus)) [M⁻¹ s⁻¹] | Ratio (Caspase-6 (Homo sapiens)) [M⁻¹ s⁻¹] | Ratio (Caspase-3 (Homo sapiens)) [M⁻¹ s⁻¹] | Ratio (Caspase-8 (Homo sapiens)) [M⁻¹ s⁻¹]
1 | CC(C)[C@H](NC(=O)C(=O)Nc1cccc2ccccc12)C(=O)N[C@@H](CC(=O)O)C(=O)COC(=O)c1c(Cl)cccc1Cl | 1.05e+06 | 234000 |  | 
2 | C[C@H](NC(=O)C(=O)Nc1ccccc1Cc1ccccc1)C(=O)N[C@@H](CC(=O)O)C(=O)COc1c(F)c(F)cc(F)c1F | 323000 | 5850 | 3430 | 154000
3 | CC(C)[C@H](NC(=O)C(=O)Nc1ccccc1Br)C(=O)N[C@@H](CC(=O)O)C(=O)COc1c(F)c(F)cc(F)c1F | 1.08e+06 | 230000 | 276000 | 1.3e+06
4 | C[C@H](NC(=O)C(=O)NCCc1ccccc1)C(=O)N[C@@H](CC(=O)O)C(=O)COP(=O)(c1ccccc1)c1ccccc1 | 1.23e+06 | 131000 | 169000 | 667000
5 | C[C@H](NC(=O)C(=O)Nc1cccc2c1CCCC2)C(=O)N[C@@H](CC(=O)O)C(=O)COC(=O)c1c(Cl)cccc1Cl | 16900 to 1.76e+07 | 126000 to 264000 | 149000 to 260000 | 21200 to 1.92e+06
6 | C[C@H](NC(=O)C(=O)Nc1ccccc1-c1ccccc1)C(=O)N[C@@H](CC(=O)O)C(=O)COP(=O)(c1ccccc1)c1ccccc1 | 345000 | 317000 | 243000 | 207000
7 | CC(C)[C@H](NC(=O)C(=O)Nc1cnccn1)C(=O)N[C@@H](CC(=O)O)C(=O)COc1c(F)c(F)cc(F)c1F | 2.57e+06 | 175000 |  | 1.83e+06
8 | C[C@H](NC(=O)C(=O)Nc1ccccc1F)C(=O)N[C@@H](CC(=O)O)C(=O)COC(=O)c1c(Cl)cccc1Cl | 172000 | 129000 | 68900 | 155000
9 | CC(C)[C@H](NC(=O)C(=O)Nc1nc2ccccc2[nH]1)C(=O)N[C@@H](CC(=O)O)C(=O)COc1c(F)c(F)cc(F)c1F | 27400 | 1840 | 3130 | 20800
10 | CC(C)[C@H](NC(=O)C(=O)Nc1ccccc1Cl)C(=O)N[C@@H](CC(=O)O)C(=O)COc1c(F)c(F)cc(F)c1F | 1.54e+06 | 161000 | 96300 | 234000
11 | C[C@H](NC(=O)C(=O)Nc1ccccc1Cl)C(=O)N[C@@H](CC(=O)O)C(=O)COP(=O)(c1ccccc1)c1ccccc1 | 103000 to 1.98e+06 | 247000 to 373000 | 162000 to 564000 | 179000 to 2.33e+06
12 | C[C@H](NC(=O)C(=O)Nc1ccccc1I)C(=O)N[C@@H](CC(=O)O)C(=O)COC(=O)c1c(Cl)cccc1Cl | 90100 to 1.27e+06 | 28200 to 360000 | 67600 to 942000 | 337000 to 551000
13 | C[C@H](NC(=O)C(=O)Nc1ccccc1-c1ccccc1)C(=O)N[C@@H](CC(=O)O)C(=O)COc1ccccc1F | 167000 | 35000 | 55600 | 37800
14 | C[C@H](NC(=O)C(=O)Nc1ccc(F)cc1)C(=O)N[C@@H](CC(=O)O)C(=O)COP(=O)(c1ccccc1)c1ccccc1 | 956000 | 424000 | 268000 | 2.3e+06
15 | C[C@H](NC(=O)C(=O)Nc1ccc(F)cc1)C(=O)N[C@@H](CC(=O)O)C(=O)COC(=O)c1c(Cl)cccc1Cl | 11700 | 18600 | 22700 | 18700
16 | CC(C)[C@H](NC(=O)C(=O)Nc1ccccc1I)C(=O)N[C@@H](CC(=O)O)C(=O)COc1c(F)c(F)cc(F)c1F | 1.26e+06 | 137000 | 42300 | 1.03e+06
17 | C[C@H](NC(=O)C(=O)NC1CCCCC1)C(=O)N[C@@H](CC(=O)O)C(=O)COC(=O)c1c(Cl)cccc1Cl | 2.02e+06 | 655000 | 1.17e+06 | 2.14e+06
18 | CC(C)[C@H](NC(=O)C(=O)Nc1cccc2ccccc12)C(=O)N[C@@H](CC(=O)O)C(=O)COc1c(F)cc(F)cc1F | 879000 | 37400 |  | 
